Reference: patent US20090055945A1, “Method for Producing Nuclear-Transplanted Egg” (priority 2005, published 2009)

Legend:
[1] = test system: oocytes into which nuclei from ES cells (E14) were transferred; assay: Expanded blastocyst formation, ES cells as donor cells; assay type: cell-based, mouse; settings: ES cell donor nuclei; 50 nM TSA for 20 hours; FIG. 8
Experimental: A procedure similar to that described in Example 1 was carried out using fibroblasts or embryonic stem cells (ES cells) as donor cells in place of cumulus cells. Fibroblasts were obtained by culturing a fragment of mouse tail (Non-patent Document 11). E14 cells were used as ES cells (Non-patent Document 12).
Oocytes into which nuclei from the donor cells were transferred were treated with TSA for 20 hours, and cultured in KSOM medium without TSA until 96 hours after the initiation of activation. Then, development into expanded blastocysts was observed and the blastocyst formation rate was determined. 30 or more embryos were examined in each of the experimental groups of the respective cells.

[2] = test system: cloned embryos derived from cumulus cells; assay: Methylation of DNA and histone H3 Lys9 in cloned embryos; assay type: cell-based, mouse; settings: 500 nM TSA for 15 hours; FIG. 9
Experimental: Cloned embryos derived from cumulus cells were produced using oocytes from B6D2F1 mice produced according to the method as described in Example 1, and cultured in the presence or absence of 500 nM TSA for 15 hours (including the activation period). Then, the nuclear transfer embryos were fixed, and methylation of DNA (DNA metC) and methylation of histone H3 Lys9 (H3K9 trimet) were examined using antibodies against the respective antigens. Furthermore, DNA was stained with DAPI. 15 cloned embryos were used for each group. The results are shown in FIG. 9 along with the merged images (Merge).

[3] = test system: oocytes injected with nuclear domains of round spermatids; assay: Birth rate after round spermatid injection (ROSI); assay type: in vivo, mouse
Experimental: The effect of the TSA treatment according to the present invention on round spermatid injection (ROSI) was examined. ROSI was carried out according to the method as described in Non-patent Document 13.
Briefly, human choriogonadotropin (hCG) was first administered to female B6D2F1 mice (Japan SLC). Oocytes were collected after 16 hours and placed in a CZB medium. The oocytes were then transferred to a KSOM medium and incubated at 37° C. under 5% CO2.
The oocytes were activated by incubation in Ca^2+-free CZB medium supplemented with 5 mM strontium chloride (SrCl2) for 20 minutes. After 40 to 80 minutes, the oocytes were injected with the nuclear domains of round spermatids (characterized by diameters of about 10 μm and centrally located distinct nucleoli; see Non-patent Document 14) collected from a male C57BL/6 mouse (Japan SLC).
The oocytes injected with nuclei were transferred to KSOM medium containing 5 nM TSA, and further transferred to KSOM medium without TSA 10 hours after the initiation of activation.
Embryos at the 2-cell stage were implanted into oviducts of pseudopregnant mice (surrogate mothers, day 0.5) on the day after the spermatid injection. Fetuses were obtained by cesarean section 19 days after the embryo implantation. The ratio of the number of born fetuses to the number of implanted embryos (birth rate) was determined.

[4] = test system: nuclear transfer oocytes (nuclei from cumulus cells in enucleated oocytes); assay: Expanded blastocyst formation of nuclear transfer oocytes (cumulus cell nuclei); assay type: cell-based, mouse
Experimental: Production of cloned mice including production of nuclear transfer embryos was carried out according to the method as described in Non-patent Document 5. Briefly, pregnant mare serum gonadotrophin (PMSG) was first administered to 8-weeks-old female B6D2F1 (C57BL/6 XDBA/2) mice (Japan SLC) for superovulation treatment. Human choriogonadotropin (hCG) was administered after 48 hours. Oocytes were collected after 16 hours. Nuclei were removed from the collected unfertilized oocytes in the presence of 5 μg/ml of cytochalasin B using a micromanipulator (enucleation).
Next, cell membranes of cumulus cells from a B6D2F1 mouse as donor somatic cells suspended in a 1.2% polyvinylpyrrolidone (PVP) solution were destroyed using an injection pipette, and the nuclei were injected into the enucleated oocytes using a micromanipulator (nuclear transfer). A piezo drive apparatus (Prime Tech) was used to generate piezo-pulses for penetration of zona pellucida or cell membranes which is required for injection of nuclei.
The thus obtained nuclear transfer oocytes were cultured in a CO2 incubator at 37° C. for 30 minutes to 1 hour. The oocytes were then transferred to an oocyte activation solution (Ca^2+-free CZB medium supplemented with 5 mM strontium chloride (SrCl2) and 5 μg/ml of cytochalasin B (Non-patent Document 10)) containing 0.5, 5, 50 or 500 nM trichostatin A (hereinafter referred to as TSA) to artificially activate the oocytes and initiate the development. Activation of oocytes was confirmed 6 hours after the initiation of activation using pronuclei formation as an index. Activated nuclear transfer oocytes were transferred to KSOM medium (Specialty Media) containing TSA at the same concentration, and cultured for further 14 hours (for 20 hours after the initiation of activation) in the medium. For a control, dimethyl sulfoxide (DMSO), which was used for dissolving TSA, was used in place of TSA to produce the same concentration.
Then, the nuclear transfer embryos at the 2-cell stage were cultured in KSOM medium without TSA until 96 hours after the initiation of activation, and development into expanded blastocysts was observed. The development into expanded blastocyst was confirmed by culturing for 96 hours after the initiation of activation and then observing under a microscope one in which the volume of embryo was increased to result in expansion of the blastocyst and thinning of zona pellucida among blastocysts having blastocoels. 80 or more embryos were examined in each of the experimental groups of the respective concentrations.
The ratio of the developed blastocysts to the number of nuclear transfer oocytes used (blastocyst formation rate (%)) was determined. The ratio of the developed expanded blastocysts to the number of oocytes that initiated cleavage (i.e., developed into the 2-cell stage) among the reconstructed nuclear transfer oocytes (blastocyst formation rate (%)) was determined.
Nuclear transfer oocytes were produced by injecting nuclei from cumulus cells into enucleated oocytes according to the method as described in Example 1, cultured in KSOM medium containing TSA at a concentration of 5 nM for various periods of time (for 0, 24, 48 or 72 hour(s) from the initiation of activation), and then cultured in KSOM medium without TSA until 96 hours after the initiation of activation. Then, development into expanded blastocysts was observed and the blastocyst formation rate was determined. […]

SMILES: CC(/C=C/C(=O)NO)=C\[C@@H](C)C(=O)c1ccc(N(C)C)cc1 [TSA, trichostatin A]
- blastocyst development rate compared with the case without TSA [1]: higher
- methylation of DNA and histone H3 Lys9 in other chromosomal portions [2]: reduction in methylation of both was observed
- methylation of DNA and histone H3 Lys9 in the pericentromeric region [2]: prominent reduction was not observed
- increase in birth rate vs control without TSA ([3]; TSA 5 nM): about 4 fold
- Birth rate (%) ([3]; TSA 5 nM until 10 hours after initiation of activation): 26.3%
- Birth number ([3]; TSA 5 nM until 10 hours after initiation of activation, 38 implanted embryos): 10
- blastocyst development rate compared with the case without TSA ([4]; TSA 5 nM for 24 or 48 hours from initiation of activation, FIG. 4): increased
- blastocyst development rate among treatment periods ([4]; TSA 5 nM for 10 hours after initiation of activation, FIG. 5): highest
- increase in blastocyst development rate ([4]; TSA 5 nM for 24 hours from initiation of activation): about 4 fold
- development rate compared with the case without TSA ([4]; TSA 5 nM for 72 hours from initiation of activation): reduced
- blastocyst formation rate compared with the case without TSA ([4]; TSA 5, 50 or 500 nM, 20 hours after initiation of activation, observed at 96 hours, FIG. 2): increased
